Results published in US10149876B2, “Tripterygium wilfordii extracts to overcome chemotherapy resistance” (WESTERN UNIVERSITY OF HEALTH SCIENCES, priority 2012, dated 2018).
Several values for one entry are separate records, joined by “and”; a condition that tells them apart may be missing. Identical values can stand only once.

Key:
[1] = system: BT474 cells; assay: SRB cell viability assay, Herceptin-sensitive BT474 cells; type: cell-based, human; conditions: for mean A at 565 nm: 72 h, background = 0.046
Experimental: (§1) Cell culture of the above cell lines was performed as described in Example 2, except that 5,000, rather than 3,000 cells were plated per well for the K562, K562/Dox, BT474, SkBr3 lines.
(§2) Table 17 also contains the serially-diluted concentrations of drugs that each cell line was tested against.

[2] = system: SkBr3 cells; assay: SRB cell viability assay, lapatinib-sensitive SkBr3 cells; type: cell-based, human; conditions: for mean A at 565 nm: no chemosensitizing pre-treatment, background = 0.047
Experimental: as §1, §2
FIG. 13 summarizes the data of Tables 32-33 in a graphical format.

CS(=O)(=O)CCNCc1ccc(-c2ccc3ncnc(Nc4ccc(OCc5cccc(F)c5)c(Cl)c4)c3c2)o1 [lapatinib]
viability at 0.001 µM ([1]; Homo sapiens, BT-474, 72 h): 100%
viability at 0.05 µM ([1]; Homo sapiens, BT-474, 72 h): 65.7%
viability at 0.167 µM ([1]; Homo sapiens, BT-474, 72 h): 52.1%
viability at 0.5 µM ([1]; Homo sapiens, BT-474, 72 h): 26.9%
viability at 1.67 µM ([1]; Homo sapiens, BT-474, 72 h): 21.1%
viability at 5 µM ([1]; Homo sapiens, BT-474, 72 h): 14.1%
viability at 16.7 µM ([1]; Homo sapiens, BT-474, 72 h): 8%
viability at 50 µM ([1]; Homo sapiens, BT-474, 72 h): 2.3%
IC50 ([1]; Homo sapiens, BT-474, read-out: IC50 of drug when cells treated with drug only): 116 nM and 0.067 µg/mL
mean A at 565 nm ([1]; Lapatinib 0.001 μM): 1.688
mean A at 565 nm ([1]; Lapatinib 0.167 μM): 0.880
mean A at 565 nm ([1]; Lapatinib 0.5 μM): 0.453
mean A at 565 nm ([1]; Lapatinib 5 μM): 0.238
mean A at 565 nm ([1]; Lapatinib 16.7 μM): 0.136
mean A at 565 nm ([1]; Lapatinib 50 μM): 0.038
IC50 ([2]; Homo sapiens, SK-BR-3, read-out: IC50 of drug when cells treated with drug only): 241 nM and 0.14 µg/mL
mean A at 565 nm ([2]; Lapatinib 0.001 μM): 2.203
mean A at 565 nm ([2]; Lapatinib 0.067 μM): 1.707
mean A at 565 nm ([2]; Lapatinib 0.2 μM): 1.314
mean A at 565 nm ([2]; Lapatinib 0.67 μM): 0.708
mean A at 565 nm ([2]; Lapatinib 2 μM): 0.347
mean A at 565 nm ([2]; Lapatinib 6.7 μM): 0.211
mean A at 565 nm ([2]; Lapatinib 20 μM): 0.221
